# Experimental data from patent US9877993B2, “Composition for cognitive and cosmetic purposes” (BIOTROPICS MALAYSIA BERHAD, priority 2012, dated 2018).
# pIC50: −log10 of the molar value. Read-outs that look alike come from different tables or passages of the source.
# How the values were obtained:
# [1] = system: Collagenase from Clostridium histolyticum; experiment: Collagenase inhibition bioassay in vitro (EnzChek gelatinase/collagenase kit); format: biochemical
# Protocol: Solvents and reagents: EnzChek™gelatinase/Collagenase Assay kit (E12055, Molecular probes, Invitrogen, USA, Stored at −20° C.) containing: DQ gelatin from pigskin, Flourescein conjugate, 10× reaction buffer, 1,10 Phenanthroline monohydrate, Collagenase from Clostridium histolyticum.
# 2.5 mg of sample was prepared by dissolving it into 200 μl of DMSO and made up to 10 ml with 1× reaction buffer. Further dilutions were made as required. The enzymatic cleavage of DQ gelatin, Flourescein conjugate releases flourescent peptide. The increase in fluorescence is proportional to proteolytic activity. The digested product form DQ gelatin, Flourescein conjugate is excited with light at 490 nm and the emitted light at 520 nm is detected in a fluorometric plate reader.
# Collagenase inhibition assay was carried out as per the kit insert of EnzChek™gelatinase/Collagenase Assay kit (E12055, Molecular probes, Invitrogen, USA). In brief, 80 μl of 1× reaction buffer/vehicle buffer/test solution/positive control of various concentrations, 100 μl of enzyme solution (0.1 units/ml), 20 μl of substrate solution (1 mg/ml) were added and mixed for 15 sec, incubated at 25° C. for 2 hours and read in a fluorescence microplate reader [Fluostar Optima, BMG Labtech, Germany] with the following parameters wherein it was excited at 490 nm, and the emission at 520 nm was recorded by the Costar 96 fluorometric plate reader.
# A control reaction was carried out without the test samples respective sample blanking, control blanking and vehicle blanking were done (which contained all reagents except the enzymes). The percentage inhibition was calculated as follows:
# [formula] where AFU=arbitrary fluorescence units and IC50 was calculated using log-probit analysis.
# scopolamine treated mice = experiment: Barnes maze, scopolamine induced deficits in learning and memory; format: in vivo, C57BL/6 mice
# Text: The animals are placed on an elevated, open, circular platform. The animal is exposed to intense light, or to a loud noise. In response to this intense stimulation the animal searches for shelter and enters one of the holes around the platform. Although the device was originally designed to be used with rats, soon it experienced modifications in order to be used with mice as well. Indeed, the device has been considered appropriate for this species because of its ability to find and escape through small holes.
# Scopolamine, a muscarinic cholinergic antagonist, is known to cause impairments in Barnes maze testing. These impairments can be reversed by increasing cholinergic tone by the administration of cholinesterase inhibitors such as donepezil.
# The scopolamine induced deficits in learning were evidenced by the increase in both total and primary errors, total and primary latency and total and primary path length. The Barnes mazes testing involves the parameters as set forth below.
# Primary Path Length (cm): The distance moved by the subject before first contact with the escape hole. First contact is defined as the point of the nose touching the escape hole.
# Total Path Length (cm): The distance moved by the subject before completing the task. Completion of task is defined as the entering of the subject into escape box. This ends the trial.
# Primary Errors: The count of the number of errors made by the subject before first contact with the escape hole. Any contact of the nose point to a non-escape hole is considered as an error. Multiple contacts to the same non-escape hole are counted as multiple errors under this context. Total Errors: The count of the number of errors made by the subject throughout the trial. Any contact of the nose point to a non-escape hole is considered as an error. Multiple contacts to the same non-escape hole are counted as multiple errors under this context. Primary Latency (sec): The latency to the first contact with the escape hole by the nose point of the subject. Total Latency (sec): The latency for subject to complete the task. Completion of task is defined as the entering of the subject into escape box, which ends the trial. (i) Test Article
# The test articles, propriety Polygonum minus extract and commercially available Ginkgo biloba extract (comparator extract) were used in this study. These extracts were prepared and stored for the project to the supplier's specifications. The doses of the extract chosen for the study were identified by the supplier A 30× stock suspension was prepared every week for each article. This was aliquot into batches which were then stored at 4° C. throughout the week. The stock suspension was diluted with ultra-pure water to working concentration every day before the dosing, and discarded after the dosing. Oral gavage needles were filled with the required amounts of suspension. Care was taken to ensure the even distribution of particles by vortex-mixing the suspensions before preparation in individual syringes, and also by syringe-mixing the diluted test article. The dose and time of scopolamine administration has been previously shown to produce deficits in spatial navigation tasks in rodents. The dose was increased from the initially reported 0.3 mg/kg to 0.5 mg/kg, as the higher dose would produce a more reliable deficit.
# 2-6 month-old male C57BL/6 mice (20-25 g), (n=12 to 14) were supplied by BioLASCO (Taiwan). They were housed in an IVC system (Allentown, USA) under a 12/12-h light/dark (200-300 Lux) cycle (lights on 07:00 h) with free access to food (Labdiet, formulated laboratory chow) and water and humidity keep between 50%-70%. The total animals used for each treatment are shown in the Table 13 below (subjects used for each arm in the experiment).
# Chronic treatment via p.o. was conducted with the TEST COMPOUNDS (test dose 1 and 2) as per Table 12 and Table 12 above and CONTROL […] (vehicle and ginkgo) continuously for 19 days. Dosing was given daily at 1800 hr. […]
# [2] = donepezil 1 mg/kg i.p. + scopolamine
# [3] = scopolamine 0.5 mg/kg i.p. vs vehicle control treated group
# [4] = scopolamine 0.5 mg/kg i.p. vs vehicle treated control mice
structure (smiles),measurement,setting,value
"O.c1cnc2c(c1)ccc1cccnc12 [1,10-Phenanthroline monohydrate]",% inhibition,[1],40.81%
same,% inhibition,[1]; 12.5 μM,0.00%
same,% inhibition,[1]; 25 Mm,11.60%
same,% inhibition,[1]; 100 Mm,88.00%
same,pIC50,"[1]; log-probit analysis, read-out: IC50 (95% confidence interval)",4.27
COc1cc2c(cc1OC)C(=O)C(CC1CCN(Cc3ccccc3)CC1)C2 (stereo not shown) [donepezil],"Primary and total latency, scopolamine induced deficit",scopolamine treated mice; [2],A similar result is obtained
same,Scopolamine induced deficits in acquisition (learning) phase,scopolamine treated mice; [2],attenuated
same,"Path length, scopolamine induced deficit",scopolamine treated mice; donepezil 1 mg/kg i.p. + scopolamine 0.5 mg/kg i.p.,did not show a scopolamine induced deficit
same,"Probe trial, time spent in target segment (memory deficit)","scopolamine treated mice; donepezil 1 mg/kg i.p. + scopolamine, day 5",reversed the scopolamine deficit
same,"Total errors, scopolamine induced deficit","scopolamine treated mice; donepezil 1 mg/kg i.p. + scopolamine, days one and two",deficits for total errors were not seen
CN1[C@@H]2C[C@@H](OC(=O)[C@H](CO)c3ccccc3)C[C@H]1[C@@H]1O[C@@H]12 [scopolamine],"Primary and total latency, learning",scopolamine treated mice; scopolamine 0.5 mg/kg i.p. vs vehicle control,induces a deficit in learning
same,"Primary path length, performance",scopolamine treated mice; [3],decreased performance only on day two
same,"Total path length, days with decreased performance",scopolamine treated mice; [3],days one two and three
same,"Primary errors, learning",scopolamine treated mice; [4],induced a deficit in learning on day two
same,"Total errors, days with deficit in learning",scopolamine treated mice; [4],on days one and two
same,"Probe trial, preference for target segment (memory)","scopolamine treated mice; scopolamine 0.5 mg/kg i.p., day 5",induced a deficit in memory
